Measured values: publication PMC7662900, “Development of a Bestatin-SAHA Hybrid with Dual Inhibitory Activity against APN and HDAC” (Molecules, 2020)
“Also recorded” adds a separate entry of the source. Read-outs that look alike come from different tables or passages of the source.

Key:
[1] = biological target: T1, microsomal APN from porcine kidney microsomes (Sus scrofa, UniProt P15145); experiment: In vitro APN inhibitory assay (l-leu-p-nitroanilide substrate); type: biochemical; conditions: mean ± SD, n ≥ 3
T1 construct: microsomal APN from porcine kidney microsomes (Biocol); purchased Biocol; host or cells: porcine kidney microsomes (tissue-derived)
T1 sequence (P15145 1-963): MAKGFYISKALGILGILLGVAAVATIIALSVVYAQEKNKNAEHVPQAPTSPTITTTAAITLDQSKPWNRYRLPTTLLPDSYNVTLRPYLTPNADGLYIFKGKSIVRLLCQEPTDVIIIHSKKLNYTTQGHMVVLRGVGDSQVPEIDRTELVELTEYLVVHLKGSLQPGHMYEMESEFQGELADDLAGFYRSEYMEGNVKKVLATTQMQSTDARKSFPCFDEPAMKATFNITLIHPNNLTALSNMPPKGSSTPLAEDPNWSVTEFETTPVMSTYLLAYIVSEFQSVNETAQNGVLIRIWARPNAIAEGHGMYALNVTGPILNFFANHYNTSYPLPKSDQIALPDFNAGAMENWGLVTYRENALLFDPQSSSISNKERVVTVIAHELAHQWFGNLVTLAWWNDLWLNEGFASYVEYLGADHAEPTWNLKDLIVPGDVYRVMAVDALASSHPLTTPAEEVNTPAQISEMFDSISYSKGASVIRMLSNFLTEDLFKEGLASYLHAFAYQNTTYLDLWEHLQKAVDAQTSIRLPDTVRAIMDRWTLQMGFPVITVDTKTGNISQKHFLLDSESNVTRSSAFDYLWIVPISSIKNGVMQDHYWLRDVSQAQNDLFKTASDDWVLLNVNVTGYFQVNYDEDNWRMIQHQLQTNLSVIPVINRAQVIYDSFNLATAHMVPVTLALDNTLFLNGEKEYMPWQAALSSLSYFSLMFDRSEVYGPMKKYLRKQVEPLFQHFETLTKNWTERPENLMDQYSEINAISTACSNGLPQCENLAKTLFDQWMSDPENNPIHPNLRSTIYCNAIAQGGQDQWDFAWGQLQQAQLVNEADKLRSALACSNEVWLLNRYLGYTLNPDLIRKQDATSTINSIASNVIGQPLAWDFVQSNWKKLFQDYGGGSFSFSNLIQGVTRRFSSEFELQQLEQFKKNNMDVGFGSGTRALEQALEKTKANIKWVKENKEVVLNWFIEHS
Experimental: The inhibitory activities of target compounds against APN were determined using l-leu-p-nitroanilide as substrate and microsomal APN from porcine kidney microsomes (Biocol) in 50 mM PBS, pH 7.2 as enzyme. Briefly, inhibitors (40 μL), PBS (145 μL), substrate (5 μL) and APN solution (10 μL) were added into 96-well plates. The mixture was incubated at 37 °C for 30 min. […] The inhibition rates were calculated based on the ultraviolet absorption readout of tested wells relative to those of control wells, and the IC50 values were calculated using Prism non-linear curve fitting method.

[2] = biological target: T2, HDAC8 (Homo sapiens, UniProt Q9BY41); experiment: In vitro HDACs inhibitory assay (fluorogenic substrate), HDAC8; type: biochemical
T2 construct: purchased BPS Bioscience
T2 sequence (Q9BY41 1-377): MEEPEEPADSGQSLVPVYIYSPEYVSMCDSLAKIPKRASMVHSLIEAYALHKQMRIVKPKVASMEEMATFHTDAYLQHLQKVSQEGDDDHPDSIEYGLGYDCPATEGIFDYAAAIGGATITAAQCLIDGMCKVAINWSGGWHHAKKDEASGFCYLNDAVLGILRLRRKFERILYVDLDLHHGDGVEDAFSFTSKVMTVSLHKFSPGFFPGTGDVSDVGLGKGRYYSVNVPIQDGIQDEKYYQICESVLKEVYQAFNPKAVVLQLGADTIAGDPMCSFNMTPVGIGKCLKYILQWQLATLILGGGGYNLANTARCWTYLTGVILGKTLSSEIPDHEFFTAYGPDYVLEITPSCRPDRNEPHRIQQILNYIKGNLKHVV
Experimental: (§1) All the HDAC enzymes were brought from BPS Bioscience. Ten μL of enzyme solution (HDAC1, HDAC6 or HDAC8) was mixed with different concentrations of tested compound (50 μL). The mixture was incubated at 37 °C for 5 min, followed by adding 40 μL fluorogenic substrate (Boc-Lys(acetyl)-AMC for HDAC1 and HDAC6, Boc-Lys(triflouroacetyl)-AMC for HDAC8). After incubation at 37 °C for 30 min, the mixture was quenched by addition of 100 μL of developer containing trypsin and Trichostatin A. Over another incubation at 37 °C for 20 min, fluorescence intensity was measured using a microplate reader at excitation and emission wavelengths of 390 nm and 460 nm, respectively. The inhibition rates were calculated from the fluorescence intensity readout of tested wells relative to those of control wells, and the IC50 values were calculated using Prism non-linear curve fitting method.

[3] = biological target: T3, HDAC1 (Homo sapiens, UniProt Q13547); experiment: In vitro HDACs inhibitory assay (fluorogenic substrate), HDAC1; type: biochemical
T3 construct: purchased BPS Bioscience
T3 sequence (Q13547 whole entry): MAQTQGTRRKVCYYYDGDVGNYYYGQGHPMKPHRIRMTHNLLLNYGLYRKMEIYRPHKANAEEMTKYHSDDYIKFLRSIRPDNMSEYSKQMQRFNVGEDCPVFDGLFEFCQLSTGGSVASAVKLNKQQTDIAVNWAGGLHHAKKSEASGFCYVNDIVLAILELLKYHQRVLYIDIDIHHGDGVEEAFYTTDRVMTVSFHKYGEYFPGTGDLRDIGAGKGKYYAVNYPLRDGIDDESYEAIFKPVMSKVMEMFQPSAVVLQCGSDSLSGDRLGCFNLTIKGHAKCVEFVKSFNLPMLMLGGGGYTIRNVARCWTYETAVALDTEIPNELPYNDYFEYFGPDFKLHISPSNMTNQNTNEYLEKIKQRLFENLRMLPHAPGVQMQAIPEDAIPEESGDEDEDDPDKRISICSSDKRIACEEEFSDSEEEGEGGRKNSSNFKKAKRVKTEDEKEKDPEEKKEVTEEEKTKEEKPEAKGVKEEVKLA
Experimental: as §1

[4] = tested on: RPMI-8226 cells; experiment: Western blot analysis of protein levels in RPMI-8226 cells; type: cell-based, human; conditions: for HDAC1, HDAC6 and HDAC8 protein levels (western blot) / HDAC decreasing effect under cotreatment with proteasome inhibitor bortezomib: 24 h treatment; for acetyl-histone H3 and acetyl-α-tubulin levels (intracellular target engagement) / HDAC1 and HDAC6 protein levels (western blot): 6 h treatment; for HDAC decreasing effect under cotreatment with proteasome inhibitor bortezomib: pre-incubated with 10 nM bortezomib
Experimental: The RPMI-8226 cells were plated in flat-bottom six-well plates and allowed to grow for 12 h, and then treated with compounds or DMSO for a specific time period. Then, the cells were washed twice with cold PBS and lysed in ice-cold RIPA buffer, which comprised 50 mM Tris Base, 150 mM NaCl, 5 mM EDTA, 0.1% (v/v) SDS, 0.5% (v/v) sodium deoxycholate and 1% (v/v) Triton-x-100. Lysates were cleared by centrifugation. Protein concentrations were determined using the BCA assay. Equal amounts of cell extracts were then resolved by SDS-PAGE, transferred to nitrocellulose membrane and probed with HDAC1 antibody, HDAC6 antibody, HDAC8 antibody, acetyl-histone H3 antibody, acetyl-α-tubulin antibody and β-actin antibody, respectively. The membrane was washed twice with TBST buffer before being incubated with secondary antibodies. Images were acquired using a GE ImageQuant LAS 4000.

[5] = biological target: T4, HDAC6 (Homo sapiens, UniProt Q9UBN7); experiment: In vitro HDACs inhibitory assay (fluorogenic substrate), HDAC6; type: biochemical
T4 construct: purchased BPS Bioscience
T4 sequence (Q9UBN7 1-1215): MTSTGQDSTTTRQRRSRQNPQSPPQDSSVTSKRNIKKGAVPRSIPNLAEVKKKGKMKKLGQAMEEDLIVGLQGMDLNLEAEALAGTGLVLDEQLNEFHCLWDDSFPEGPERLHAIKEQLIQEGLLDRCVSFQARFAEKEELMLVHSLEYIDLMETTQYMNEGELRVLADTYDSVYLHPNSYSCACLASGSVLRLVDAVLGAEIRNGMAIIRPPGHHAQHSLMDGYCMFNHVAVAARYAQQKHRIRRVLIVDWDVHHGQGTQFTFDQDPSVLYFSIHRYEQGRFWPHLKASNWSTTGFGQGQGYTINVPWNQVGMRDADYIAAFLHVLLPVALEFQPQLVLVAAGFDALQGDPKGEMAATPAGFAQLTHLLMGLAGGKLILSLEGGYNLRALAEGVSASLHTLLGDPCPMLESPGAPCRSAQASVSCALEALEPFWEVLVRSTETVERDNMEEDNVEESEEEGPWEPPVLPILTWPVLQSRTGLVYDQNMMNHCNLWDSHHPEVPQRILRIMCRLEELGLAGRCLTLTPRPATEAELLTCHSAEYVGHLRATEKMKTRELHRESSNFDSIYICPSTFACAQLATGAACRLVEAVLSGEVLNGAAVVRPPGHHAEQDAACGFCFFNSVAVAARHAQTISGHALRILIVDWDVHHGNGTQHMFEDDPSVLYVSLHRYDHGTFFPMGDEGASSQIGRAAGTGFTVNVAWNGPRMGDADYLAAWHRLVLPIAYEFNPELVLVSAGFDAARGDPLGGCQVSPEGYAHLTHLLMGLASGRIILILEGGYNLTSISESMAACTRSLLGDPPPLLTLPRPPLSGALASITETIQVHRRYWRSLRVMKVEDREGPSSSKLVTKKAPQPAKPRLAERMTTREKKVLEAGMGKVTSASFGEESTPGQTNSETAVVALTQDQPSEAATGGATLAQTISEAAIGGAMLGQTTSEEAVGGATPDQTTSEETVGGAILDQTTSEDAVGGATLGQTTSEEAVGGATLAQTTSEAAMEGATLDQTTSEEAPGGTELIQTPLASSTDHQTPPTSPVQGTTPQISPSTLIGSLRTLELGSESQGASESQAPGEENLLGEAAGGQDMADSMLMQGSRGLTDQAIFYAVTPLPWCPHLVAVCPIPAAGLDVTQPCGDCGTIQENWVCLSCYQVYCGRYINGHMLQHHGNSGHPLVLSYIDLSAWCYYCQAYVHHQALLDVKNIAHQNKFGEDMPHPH
Experimental: as §1

[6] = tested on: rat thoracic aorta rings; experiment: Ex vivo rat thoracic aorta rings (TARs) assay; type: cell-based; conditions: for anti-angiogenesis activity (microvessel outgrowth) at 5 μM: compared with bestatin at same concentration; for microvessel outgrowth from thoracic aorta ring: indicated concentrations, treated each day for 5 days
Experimental: Matrigel (100 μL; BD biosciences, NJ) was added into test well of 96-well plates and then allowed to polymerize for 0.5 h at 37 °C. Sprague–Dawley rats that were 4 to 6 weeks old were sacrificed and aortas were harvested. Each aorta was cut into 1 mm slices and embedded in additional 100 μL of Matrigel in 96-well plates. After that, the rings were incubated for 30 min at 37 °C and 5% CO2. Aorta rings were treated with the vehicle (0.5% DMSO) or compounds each day for 5 days and photographed on the sixth day at ×200 magnification. All experiments involving laboratory animals were performed with the approval by the institutional guidelines of Animal Care and Use Committee at Shandong University.

[7] = read-out: Inhibitory Rates at 10 μM, HDAC8
[8] = read-out: Inhibitory Rates at 10 μM, HDAC1
[9] = read-out: Inhibitory Rates at 10 μM, HDAC6

| SMILES | IC50 [1] [nM] | IC50 ([2]; mean ± SD, n ≥ 3) [nM] | inhibition at 10 µM ([2]; read-out: Inhibitory Rates at 10 μM, HDAC8, 10 μM) [%] | IC50 ([3]; mean ± SD, n ≥ 3) [nM] | inhibition at 10 µM ([3]; read-out: Inhibitory Rates at 10 μM, HDAC1, 10 μM) [%] | HDAC1, HDAC6 and HDAC8 protein levels (western blot) ([4]; 1 μM to 4 μM) | acetyl-histone H3 and acetyl-α-tubulin levels (intracellular target engagement) [4] | HDAC decreasing effect under cotreatment with proteasome inhibitor bortezomib [4] | HDAC1 and HDAC6 protein levels (western blot) ([4]; up to 20 μM) | IC50 ([5]; mean ± SD, n ≥ 3) [nM] | inhibition at 10 µM ([5]; read-out: Inhibitory Rates at 10 μM, HDAC6, 10 μM) [%] | anti-angiogenesis activity (microvessel outgrowth) at 5 μM [6] | microvessel outgrowth from thoracic aorta ring [6] | inhibition at 10 µM [2, 7] [%] | inhibition at 10 µM [3, 8] [%] | inhibition at 10 µM [5, 9] [%] | HDAC1, HDAC6 and HDAC8 protein levels (western blot) ([4]; 5 μM) | HDAC1 and HDAC6 protein levels (western blot) ([4]; indicated concentrations) |
| --- | --- | --- | --- | --- | --- | --- | --- | --- | --- | --- | --- | --- | --- | --- | --- | --- | --- | --- |
| CC(C)C[C@H](NC(=O)[C@@H](O)[C@H](N)Cc1ccccc1)C(=O)NCCCCCC(=O)Nc1ccc(NC(=O)CCCCCCC(=O)NO)cc1.O=C(O)C(F)(F)F [P1, N^1-(4-(6-((S)-2-((2S,3R)-3-Amino-2-hydroxy-4-phenylbutanamido)-4-methylpentanamido)hexanamido)phenyl)-N^8-hydroxyoctanediamide trifluoroacetate] | 3430 ± 140 | 694 | > 90 | 30 | > 90 | significantly decrease the levels of HDAC1, HDAC6 and even HDAC8 in a dose-dependent manner | increased levels of acetyl-histone H3 (the HDAC1 substrate) and acetyl-α-tubulin (the HDAC6 substrate) | could not reverse | did not lead to HDAC1 or HDAC6 depletion | 11.5 | > 90 | superior anti-angiogenesis activities relative to bestatin | effectively inhibited the microvessel outgrowth in a dose-dependent manner |  |  |  |  |  |
| CC(C)C[C@H](NC(=O)[C@@H](O)[C@H](N)Cc1ccccc1)C(=O)NCCOCCOCCNC(=O)c1cccc(C(=O)NO)c1.O=C(O)C(F)(F)F [P2, N^1-((11S,14S,15R)-15-Amino-14-hydroxy-11-isobutyl-10,13-dioxo-16-phenyl-3,6-dioxa-9,12-diazahexadecyl)-N^3-hydroxyisophthalamide trifluoroacetate] | 1670 ± 30 |  |  |  |  |  |  |  |  |  |  | superior anti-angiogenesis activities relative to bestatin; also recorded: almost completely inhibit the microvessel outgrowth | effectively inhibited the microvessel outgrowth in a dose-dependent manner | 64 | 66 | 76 |  |  |
| CC(C)C[C@H](NC(=O)[C@@H](O)[C@H](N)Cc1ccccc1)C(=O)NCCOCCOCC(=O)Nc1cccc(C(=O)NO)c1 [P3, 3-((11S,14S,15R)-15-Amino-14-hydroxy-11-isobutyl-10,13-dioxo-16-phenyl-3,6-dioxa-9,12-diazahexadecanamido)-N-hydroxybenzamide] | 2650 ± 160 |  |  |  |  |  |  |  |  |  |  | superior anti-angiogenesis activities relative to bestatin | effectively inhibited the microvessel outgrowth in a dose-dependent manner | 51 | 67 | 71 |  |  |
| O=C(CCCCCCC(=O)Nc1ccccc1)NO [SAHA] |  |  |  |  |  |  | potently inhibited the intracellular HDAC | could not reverse |  |  |  |  |  |  |  |  | effectively lead to the downregulation of HDAC1, HDAC6 and HDAC8 | without influencing the levels of HDAC1 and HDAC6 |
